Laboratory results from patent US20070128217A1 (priority 2003, published 2007).

Tests used:
[1] = system: rabbit serum obtained by immunizing a rabbit with the SARS-CoV strain Frankfurt 1; assay type: binding; set-up: Binding of a rabbit serum to linear peptides / Binding of a rabbit serum to looped peptides / Rabbit serum linear peptides / Rabbit serum looped peptides / Binding of a rabbit serum to linear peptides of protein N of SARS-CoV Urbani (Rabbit serum linear peptides) / Binding of a rabbit serum to looped/cyclic peptides of protein N of SARS-CoV Urbani (Rabbit serum looped peptides): unit not given here
[2] = system: control sera (pooled serum of ten healthy LUMC hospital workers; commercial negative donor pooled serum from the Dutch bloodbank); assay type: binding, human; set-up: Binding of Control serum LUMC to linear peptides / Binding of Control serum Blood-bank to linear peptides / Binding of Control serum LUMC to looped peptides / Binding of Control Serum Blood-Bank to Looped peptides / Binding of Control serum LUMC to linear peptides of the protein M of SARS-CoV Urbani / Binding of Control serum Blood-bank to linear peptides of the protein M of SARS-CoV Urbani / Binding of Control serum LUMC to looped peptides of the protein M of SARS-CoV Urbani / Binding of Control Serum Blood-Bank to Looped peptides of the protein M of SARS-CoV Urbani: unit not given here
[3] = system: antibodies in sera from SARS patients (sera 1a, 1b, 2, 6, 37, 62, London, SARS-yellow, SARS-green); assay type: binding, human; set-up: Binding of serum 6 to linear peptides of protein X1 of SARS-CoV Urbani / Binding of serum 37 to linear peptides of protein X1 of SARS-CoV Urbani / Binding of serum 6 to looped/cyclic peptide (PEPSCAN-ELISA) / Binding of serum 37 to looped/cyclic peptide (PEPSCAN-ELISA) / Binding of serum 37 to looped/cyclic peptides of protein X1 of SARS-CoV Urbani / Binding of serum 6 to linear peptides of protein X2 / Binding of serum 37 to linear peptides of protein X2 / Binding of serum 37 to looped/cyclic peptides of protein X2 of SARS-CoV Urbani / Binding of serum 6 to linear peptides of protein M of SARS-CoV Urbani / Binding of serum 37 to linear peptides of protein M of SARS-CoV Urbani / Binding of serum 6 to looped/cyclic peptides of protein M of SARS-CoV Urbani / Binding of serum 37 to looped/cyclic peptides of protein M of SARS-CoV Urbani / Binding of serum 6 to linear peptides of protein X3 of SARS-CoV Urbani / Binding of serum 37 to linear peptides of protein X3 of SARS-CoV Urbani / Binding of serum 37 to looped/cyclic peptides of protein X3 of SARS-CoV Urbani / Binding of serum 6 to linear peptides of protein X4 of SARS-CoV Urbani / Binding of serum 37 to linear peptides of protein X4 of SARS-CoV Urbani / Binding of serum 37 to looped/cyclic peptides of protein X4 of SARS-CoV Urbani / Binding of serum 6 to linear peptides of protein X5 of SARS-CoV Urbani / Binding of serum 37 to linear peptides of protein X5 of SARS-CoV Urbani / Binding of serum 37 to looped/cyclic peptides of protein X5 of SARS-CoV Urbani / Binding of serum 6 to linear peptides of protein N of SARS-CoV Urbani / Binding of serum 37 to linear peptides of protein N of SARS-CoV Urbani / Binding of serum 6 to linear peptide (PEPSCAN-ELISA) / Binding of serum 1a to looped/cyclic peptides of protein N of SARS-CoV Urbani / Binding of serum 1b to looped/cyclic peptides of protein N of SARS-CoV Urbani / Binding of serum 2 to looped/cyclic peptides of protein N of SARS-CoV Urbani / Binding of serum 6 to looped/cyclic peptides of protein N of SARS-CoV Urbani / Binding of serum 37 to looped/cyclic peptides of protein N of SARS-CoV Urbani / Binding of serum 62 to looped/cyclic peptides of protein N of SARS-CoV Urbani / Binding of serum London to looped/cyclic peptides of protein N of SARS-CoV Urbani / Binding of serum SARS-green to looped/cyclic peptides of protein N of SARS-CoV Urbani: unit not given here

## TYSTAWLCALGKVLP
[1]
  Rabbit serum linear peptides: 0.6
  Rabbit serum looped peptides: 0.7
[2]
  Binding of Control Serum Blood-Bank to Looped peptides: 0.5
  Binding of Control serum Blood-bank to linear peptides: 0.9
  Binding of Control serum LUMC to linear peptides: 0.5
  Binding of Control serum LUMC to looped peptides: 0.6
[3]
  Binding of serum 1a to linear peptides of protein X5 of SARS-CoV Urbani: 0.8
  Binding of serum 1a to looped/cyclic peptides of protein X5 of SARS-CoV Urbani: 0.5
  Binding of serum 1b to linear peptides of protein X5 of SARS-CoV Urbani: 0.6
  Binding of serum 1b to looped/cyclic peptides of protein X5 of SARS-CoV Urbani: 0.3
  Binding of serum 2 to linear peptides of protein X5 of SARS-CoV Urbani: 0.9
  Binding of serum 2 to looped/cyclic peptides of protein X5 of SARS-CoV Urbani: 1.1
  Binding of serum 6 to linear peptides of protein X5 of SARS-CoV Urbani: 0.6
  Binding of serum 6 to looped/cyclic peptides of protein X5 of SARS-CoV Urbani: 0.4
  Binding of serum 37 to linear peptides of protein X5 of SARS-CoV Urbani: 0.7
  Binding of serum 37 to looped/cyclic peptides of protein X5 of SARS-CoV Urbani: 0.6
  Binding of serum 62 to linear peptides of protein X5 of SARS-CoV Urbani: 0.8
  Binding of serum 62 to looped/cyclic peptides of protein X5 of SARS-CoV Urbani: 0.8
  Binding of serum London to linear peptides of protein X5 of SARS-CoV Urbani: 0.7
  Binding of serum London to looped/cyclic peptides of protein X5 of SARS-CoV Urbani: 0.2
  Binding of serum SARS-green to linear peptides of protein X5 of SARS-CoV Urbani: 0.7
  Binding of serum SARS-green to looped/cyclic peptides of protein X5 of SARS-CoV Urbani: 0.3
  Binding of serum SARS-yellow to linear peptides of protein X5 of SARS-CoV Urbani: 0.4
  Binding of serum SARS-yellow to looped/cyclic peptides of protein X5 of SARS-CoV Urbani: 0.5

## CKSKNPLLYDANYFV
[1]
  Binding of a rabbit serum to linear peptides: 0.1
  Binding of a rabbit serum to looped peptides: 0.6
[2]
  Binding of Control Serum Blood-Bank to Looped peptides: 0.6
  Binding of Control serum Blood-bank to linear peptides: 0.5
  Binding of Control serum LUMC to linear peptides: 0.8
  Binding of Control serum LUMC to looped peptides: 0.8
[3]
  Binding of serum 1a to linear peptides of protein X1 of SARS-CoV Urbani: 0.8
  Binding of serum 1a to looped/cyclic peptide (PEPSCAN-ELISA): 0.8
  Binding of serum 1b to linear peptides of protein X1 of SARS-CoV Urbani: 0.5
  Binding of serum 1b to looped/cyclic peptide (PEPSCAN-ELISA): 0.6
  Binding of serum 2 to linear peptides of protein X1 of SARS-CoV Urbani: 0.5
  Binding of serum 2 to looped/cyclic peptide (PEPSCAN-ELISA): 0.5
  Binding of serum 6 to linear peptides of protein X1 of SARS-CoV Urbani: 0.6
  Binding of serum 6 to looped/cyclic peptide (PEPSCAN-ELISA): 0.4
  Binding of serum 37 to linear peptides of protein X1 of SARS-CoV Urbani: 0.7
  Binding of serum 37 to looped/cyclic peptide (PEPSCAN-ELISA): 0.8
  Binding of serum 62 to linear peptides of protein X1 of SARS-CoV Urbani: 0.5
  Binding of serum 62 to looped/cyclic peptide (PEPSCAN-ELISA): 0.8
  Binding of serum London to linear peptides of protein X1 of SARS-CoV Urbani: 0.3
  Binding of serum London to looped/cyclic peptide (PEPSCAN-ELISA): 0.2
  Binding of serum SARS-green to linear peptides of protein X1 of SARS-CoV Urbani: 0.2
  Binding of serum SARS-green to looped/cyclic peptide (PEPSCAN-ELISA): 0.3
  Binding of serum SARS-yellow to linear peptides of protein X1 of SARS-CoV Urbani: 0.2
  Binding of serum SARS-yellow to looped/cyclic peptide (PEPSCAN-ELISA): 0.5

## VSPKLFIRQEEVQQE
[1]
  Rabbit serum linear peptides: 0.4
  Rabbit serum looped peptides: 0.3
[2]
  Binding of Control Serum Blood-Bank to Looped peptides: 0.4
  Binding of Control serum Blood-bank to linear peptides: 0.5
  Binding of Control serum LUMC to linear peptides: 0.4
  Binding of Control serum LUMC to looped peptides: 0.7
[3]
  Binding of serum 1a to linear peptides of protein X4 of SARS-CoV Urbani: 0.7
  Binding of serum 1a to looped/cyclic peptides of protein X4 of SARS-CoV Urbani: 0.6
  Binding of serum 1b to linear peptides of protein X4 of SARS-CoV Urbani: 0.5
  Binding of serum 1b to looped/cyclic peptides of protein X4 of SARS-CoV Urbani: 1.0
  Binding of serum 2 to linear peptides of protein X4 of SARS-CoV Urbani: 0.3
  Binding of serum 2 to looped/cyclic peptides of protein X4 of SARS-CoV Urbani: 0.8
  Binding of serum 6 to linear peptides of protein X4 of SARS-CoV Urbani: 0.3
  Binding of serum 6 to looped/cyclic peptides of protein X4 of SARS-CoV Urbani: 0.4
  Binding of serum 37 to linear peptides of protein X4 of SARS-CoV Urbani: 0.7
  Binding of serum 37 to looped/cyclic peptides of protein X4 of SARS-CoV Urbani: 0.9
  Binding of serum 62 to linear peptides of protein X4 of SARS-CoV Urbani: 0.7
  Binding of serum 62 to looped/cyclic peptides of protein X4 of SARS-CoV Urbani: 0.8
  Binding of serum London to linear peptides of protein X4 of SARS-CoV Urbani: 0.8
  Binding of serum London to looped/cyclic peptides of protein X4 of SARS-CoV Urbani: 0.6
  Binding of serum SARS-green to linear peptides of protein X4 of SARS-CoV Urbani: 0.6
  Binding of serum SARS-green to looped/cyclic peptides of protein X4 of SARS-CoV Urbani: 1.2
  Binding of serum SARS-yellow to linear peptides of protein X4 of SARS-CoV Urbani: 0.3
  Binding of serum SARS-yellow to looped/cyclic peptides of protein X4 of SARS-CoV Urbani: 0.5

## VAAGMEAQFLYLYAL
[1]
  Binding of a rabbit serum to linear peptides: 0.1
  Binding of a rabbit serum to looped peptides: 0.5
[2]
  Binding of Control Serum Blood-Bank to Looped peptides: 0.5
  Binding of Control serum Blood-bank to linear peptides: 0.5
  Binding of Control serum LUMC to linear peptides: 0.9
  Binding of Control serum LUMC to looped peptides: 0.8
[3]
  Binding of serum 1a to linear peptides of protein X1 of SARS-CoV Urbani: 0.7
  Binding of serum 1a to looped/cyclic peptide (PEPSCAN-ELISA): 0.5
  Binding of serum 1b to linear peptides of protein X1 of SARS-CoV Urbani: 0.6
  Binding of serum 1b to looped/cyclic peptide (PEPSCAN-ELISA): 0.4
  Binding of serum 2 to linear peptides of protein X1 of SARS-CoV Urbani: 0.5
  Binding of serum 2 to looped/cyclic peptide (PEPSCAN-ELISA): 0.4
  Binding of serum 6 to linear peptides of protein X1 of SARS-CoV Urbani: 0.4
  Binding of serum 6 to looped/cyclic peptide (PEPSCAN-ELISA): 0.3
  Binding of serum 37 to linear peptides of protein X1 of SARS-CoV Urbani: 0.5
  Binding of serum 37 to looped/cyclic peptide (PEPSCAN-ELISA): 0.5
  Binding of serum 62 to linear peptides of protein X1 of SARS-CoV Urbani: 0.4
  Binding of serum 62 to looped/cyclic peptide (PEPSCAN-ELISA): 0.5
  Binding of serum London to linear peptides of protein X1 of SARS-CoV Urbani: 0.2
  Binding of serum London to looped/cyclic peptide (PEPSCAN-ELISA): 0.2
  Binding of serum SARS-green to linear peptides of protein X1 of SARS-CoV Urbani: 0.2
  Binding of serum SARS-green to looped/cyclic peptide (PEPSCAN-ELISA): 0.3
  Binding of serum SARS-yellow to linear peptides of protein X1 of SARS-CoV Urbani: 0.3
  Binding of serum SARS-yellow to looped/cyclic peptide (PEPSCAN-ELISA): 0.5

## AWLCALGKVLPFHRW
[1]
  Rabbit serum linear peptides: 0.8
  Rabbit serum looped peptides: 0.6
[2]
  Binding of Control Serum Blood-Bank to Looped peptides: 0.4
  Binding of Control serum Blood-bank to linear peptides: 0.9
  Binding of Control serum LUMC to linear peptides: 0.6
  Binding of Control serum LUMC to looped peptides: 0.5
[3]
  Binding of serum 1a to linear peptides of protein X5 of SARS-CoV Urbani: 0.8
  Binding of serum 1a to looped/cyclic peptides of protein X5 of SARS-CoV Urbani: 0.4
  Binding of serum 1b to linear peptides of protein X5 of SARS-CoV Urbani: 0.6
  Binding of serum 1b to looped/cyclic peptides of protein X5 of SARS-CoV Urbani: 0.3
  Binding of serum 2 to linear peptides of protein X5 of SARS-CoV Urbani: 0.8
  Binding of serum 2 to looped/cyclic peptides of protein X5 of SARS-CoV Urbani: 0.5
  Binding of serum 6 to linear peptides of protein X5 of SARS-CoV Urbani: 0.6
  Binding of serum 6 to looped/cyclic peptides of protein X5 of SARS-CoV Urbani: 0.4
  Binding of serum 37 to linear peptides of protein X5 of SARS-CoV Urbani: 0.8
  Binding of serum 37 to looped/cyclic peptides of protein X5 of SARS-CoV Urbani: 0.5
  Binding of serum 62 to linear peptides of protein X5 of SARS-CoV Urbani: 0.9
  Binding of serum 62 to looped/cyclic peptides of protein X5 of SARS-CoV Urbani: 0.7
  Binding of serum London to linear peptides of protein X5 of SARS-CoV Urbani: 0.8
  Binding of serum London to looped/cyclic peptides of protein X5 of SARS-CoV Urbani: 0.2
  Binding of serum SARS-green to linear peptides of protein X5 of SARS-CoV Urbani: 0.6
  Binding of serum SARS-green to looped/cyclic peptides of protein X5 of SARS-CoV Urbani: 0.5
  Binding of serum SARS-yellow to linear peptides of protein X5 of SARS-CoV Urbani: 0.2
  Binding of serum SARS-yellow to looped/cyclic peptides of protein X5 of SARS-CoV Urbani: 0.5
